Laboratory results: PMC7261172, “Peptides containing the PCNA interacting motif APIM bind to the β-clamp and inhibit bacterial growth and mutagenesis” (Nucleic Acids Research, 2020)
In brackets after ≈: the same amount, converted by molar mass. Read-outs that look alike come from different tables or passages of the source.

Assays:
S.aureus ATCC 29213 = experiment: microbe, parasite or virus in culture; type: cell-based, Staphylococcus aureus
Experimental: (§1) Briefly, bacterial suspension in Mueller-Hinton Broth was adjusted to 0.5 McFarland and diluted to 5 × 10^5 CFU/ml. The suspension (0.1 ml) was seeded in polypropylene microtiter plates (Greiner), 5 × 10^4 CFU/well. APIM-peptides were added as 10% of the total volume. Initial inoculums were quantified by seeding on agar for verification of the estimated CFU/mL. After 24 hours (h) incubation at 37°C, the microtiter plates were inspected for visible growth.
(§2) Determination of minimal inhibitory concentrations (MICs) for S. aureus was done at Statens Serum Institute, Copenhagen, Denmark.

S.aureus FDA486 = experiment: microbe, parasite or virus in culture; type: cell-based, Staphylococcus aureus
Experimental: as §1, §2

β-clamp [1] = conditions: read-out: KD for the β-clamp; cited from earlier work
Text: Next, we examined the direct interaction between the β-clamp and octamer peptides containing RWLVK and RALVK (i.e. without the cell penetrating part of the peptide) by SPR.

β-clamp [2] = conditions: peptide:β-clamp 100:5 μM (RWLVK, RALVK octamers) or 50:20 μM (Pol III peptide); 298 K, pH 7.4
Experimental: All NMR spectra were recorded in a standard 5 mm NMR tube at 298 K in 20 mM NaH2PO4, 100 mM NaCl, pH 7.4, 0.25 mM DSS, 10% D2O on a Bruker AVANCE III 800-MHz (^1H) spectrometer equipped with a room temperature probe. Free induction decays were transformed and analyzed in Topspin (Bruker Biospin) and the aromatic region assigned.

E.coli β-clamp = target: T1, E.coli β-clamp (Escherichia coli, UniProt P0A988); experiment: Microscale thermophoresis (MST) β-clamp binding
T1 construct: made in house
T1 sequence (P0A988 whole entry): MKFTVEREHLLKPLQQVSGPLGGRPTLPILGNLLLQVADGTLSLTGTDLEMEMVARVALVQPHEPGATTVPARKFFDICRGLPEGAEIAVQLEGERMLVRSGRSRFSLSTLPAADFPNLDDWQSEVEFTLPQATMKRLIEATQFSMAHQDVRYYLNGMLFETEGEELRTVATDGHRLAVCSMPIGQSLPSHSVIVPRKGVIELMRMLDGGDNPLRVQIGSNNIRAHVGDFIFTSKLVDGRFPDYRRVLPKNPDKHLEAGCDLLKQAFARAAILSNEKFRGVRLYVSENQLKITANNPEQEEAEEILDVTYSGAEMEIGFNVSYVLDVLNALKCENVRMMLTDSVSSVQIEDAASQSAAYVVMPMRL
Experimental: Purified E.coli β-clamp ([49]) was labeled using the RED-Maleimide Labelling Kit (NanoTemper Technologies, GmbH) according to the manufacturer's instructions applying a concentration of 20 μM protein at room temperature. The ligands, cell penetrating APIM-peptides, were dissolved and diluted in supplemented Microscale thermophoresis (MST) buffer (50 mM Tris–HCl pH 7.5, 150 mM NaCl, 10 mM MgCl2) with 2% fetal bovine serum and incubated for 10 min in room temperature. Series of 1:1 dilutions (16×), producing ligand concentrations ranging from 500 μM to 15 nM, were made. Each ligand solution was further diluted 1:1 with fluorescent labeled β-clamp (diluted in MST buffer, 3 nM) and incubated for 10 min. Fluorescence was measured for each protein-ligand sample using a Monolith NT.115 instrument (20% MST power and 100% LED power) and Monolith NT Standard Treated Capillaries (both NanoTemper Technologies, GmbH). To calculate the KD’s, fluorescence signals were plotted and analyzed using the supplemented software (NT Analysis software version 1.5.41 and MO.affinity analysis version 2.2.4, NanoTemper Technologies). Denaturation with SD-buffer (4% sodium dodecyl sulphate and 40 mM DTT) and re-measurement of total fluorescence confirmed that the observed change in fluorescence was due to ligand binding event.

S.epidermidis (MRSE) = type: cell-based, Staphylococcus epidermidis; conditions: 24 h
Experimental: as §1

E. coli MG1655 [3] = type: cell-based, Escherichia coli; conditions: Mueller-Hinton Broth, 5 × 10^5 CFU/ml, 24 h, 37°C; average of ≥3 independent biological experiments
Experimental: as §1

E. coli BL21 [4] = type: cell-based, Escherichia coli; conditions: Mueller-Hinton Broth, 5 × 10^5 CFU/ml, 24 h, 37°C; average of ≥3 independent biological experiments
Experimental: as §1

E. coli MG1655 [5] = experiment: Rif^R mutagenicity assay, added cell penetrating peptides; type: cell-based, Escherichia coli; conditions: for Mutation frequency, added peptides: spontaneous, E. coli MG1655, cell penetrating peptide 20 μM, average ± SEM, RWLVK n = 11, RFSLK n = 4, RWLK n = 7, R11 n = 5, control 10.5 ± 2.2
Experimental: (§3) The rifampicin resistance (Rif^R) mutagenicity assay was performed as described in ([50]) with some modifications. Briefly, E. coli BL21 expressing peptide variants were induced with (IPTG) (1 mM) at OD600 = 0.3–0.4 and cultured at 37°C, for 2 h before harvested. Bacteria from large culture volumes (up to 50 ml) were plated in order to obtain ∼100 Rif^R colonies per dish. The anti-mutagenic effect of cell penetrating APIM-peptides in E. coli MG1655 was done by adding 20 μM peptide at OD600 = 0.01, and the cells were cultured for 30 min. Next, the cells were pelleted and washed with PBS before UV-irradiated in (50 μl) PBS (2 mJ UVC/cm^2), re-suspended in 2.5 ml LB and cultured in 37°C for 2 h before plating on LB plates with and without Rif (100 μg/ml). The number of Rif^R colonies/ total CFU was determined after 1 and 2 days, respectively. Significance was calculated by using a two-tailed, paired, students t-test. Gentamicin resistance (Gen^R) was examined using a gentamicin sensitive clinical isolate of S. epidermidis. […] The cultures were grown in a shaking incubator (37°C) and were re-inoculated (1:100) every 24 h in fresh TSB and supplements. The cultures were plated on blood agar plates with and without gentamicin (10 mg/l) every day for 4 days, and the frequency of Gen^R colonies was determined by calculating the number of Gen^R colonies/total CFU.

WT β-clamp = experiment: SPR analysis, immobilized WT β-clamp; type: binding, Escherichia coli; conditions: 4-128 μM peptide, single-cycle mode, 25°C, PBS P+ pH 7.4; Figure 2A
Experimental: (§4) The experiment was performed with Biacore S200 (GE Healthcare), at 25°C with a flowrate of 30 μl/min. Purified WT and mutant β-clamp protein were immobilized by amine coupling on CM5 Series S sensor chips (GE Healthcare).
(§5) Octamer peptides containing APIM motifs (underlined) [sequence] and [sequence] were diluted in running buffer (PBS P+ buffer: 20 mM phosphate buffer pH 7.4, 3 mM KCl, 137 mM NaCl, 0.05% surfactant P20) at 4, 8, 16, 32, 64 and 128 μM, and analyzed by single-cycle mode. Six consecutive injections of alternating running buffer or peptide in running buffer, with an association phase of 120 seconds (s) followed by a dissociation phase of 60 s and a final dissociation phase of 600 s, were run for each β-clamp protein variant. The running buffer series were used as blanks together with the signal from the reference channels for double-reference subtraction. After each series of six injections, the sensor chip was washed with a 120 s regeneration injection of 1 M NaCl followed by a 120 s injection of running buffer. The sensorgrams were processed (reference subtracted) with Biacore S200 Evaluation Software Version 1.1 (GE Healthcare) and normalized according to the immobilized level.

[6] = system: mutant β-clamps (H148K, M362D, V151A, P363D, P242D, V247F); experiment: SPR analysis, immobilized mutant β-clamps; type: binding, Escherichia coli; conditions: Figure 2B
Experimental: as §4, §5

S.aureus FusA88799 = type: cell-based, Staphylococcus aureus; conditions: n = 3
Experimental: as §1, §2

S.aureus (MRSA) 43484 = type: cell-based, Staphylococcus aureus
Experimental: as §1, §2

[7] = system: E. coli MG1655 WT and TLS deletion mutant cells; experiment: Rif^R mutagenicity assay in WT and TLS deletion strains; type: cell-based, Escherichia coli; conditions: peptide 20 μM
Text: S. aureus: ATCC 29213, FDA486, methicillin-resistant S. aureus strain (MRSA) 43484 and FusA88779; S. epidermidis: clinical isolates (including one gentamicin sensitive strain and several multidrug-resistant strains) from Department of Microbiology, St. Olavs University Hospital, Trondheim, Norway, kindly provided by professor Kåre Bergh; Escherichia coli: strains DH5α, BL21 (RIPL) DE3 (Novagen), K12 (MG1655) wild type (WT) and TLS deletion strains (ΔPol II^3, ΔPol IV^1, ΔPol V^1, ΔPol II/IV^3, ΔPol II/V^3, ΔPol IV/V^2 and ΔPol II/IV/V^3). ^1 Keio collection, ^2 generated by Prof Magnar Bjørås’ group, UiO and ^3prepared as described ([43]). Briefly, polB was inactivated in E. coli MG1655 WT, ΔPol IV, ΔPol V and ΔPol IV/V using JW0059:: polB. A phage stock (T4GT7) diluted in T4 buffer was added to the JW0059::polB culture, incubated and plated on LB agar plates. The lysate was harvested and added to 2 ml T4 buffer and 0.2 ml CHCl3 (T4GT7 lysate). The mixture was centrifuged, and supernatant stored at 4°C over 20 μl CHCl3. 0.5 ml overnight culture of the recipient cells was re-suspended in 1 ml of T4 buffer and aliquoted. The T4GT7 lysate (10^−1, 10^−2, 10^−3 and 10^−4 dilutions) was added to the aliquots, incubated for 25 minutes (min) at room temperature and plated on LB-agar plates with kanamycin. Colonies obtained were re-streaked twice to obtain a pure culture. Kanamycin resistance cassettes replacing the deleted polB genes were removed by an FLP-recombinase expressed by pCP20 plasmid.
as §3

E. coli BL21 [8] = experiment: Overexpression (viability) assay; type: cell-based, Escherichia coli; conditions: IPTG 1 mM; 2 and 8 h after induction; peptide without cell penetrating part (MD-APIM-GILQSTLA); Figure 1D, Suppl. S1A
Experimental: A stop codon is found in the multiple cloning site after the NcoI/NheI site. The sequence over-expressed is MD-APIM-[…].
Induction was performed using isopropyl β-D-1-thiogalactopyranoside (IPTG) (1 mM) at OD600 = 0.3 - 0.4. Bacterial growth was measured by OD600 or the number of colony-forming units (CFU) per ml.

E. coli BL21 [9] = experiment: Rif^R mutagenicity assay, overexpressed peptides; type: cell-based, Escherichia coli
Experimental: as §3

[10] = molar form of the μg/ml MIC (RWLVK MW = 3674 Da, ciprofloxacin MW = 313 Da), n = 3
[11] = molar form of the μg/ml MIC, n = 3
[12] = Mueller-Hinton Broth, 5 × 10^5 CFU/ml, 37°C, average of ≥3 independent biological experiments

O=C(O)c1cn(C2CC2)c2cc(N3CCNCC3)c(F)cc2c1=O [Ciprofloxacin, reference compound]
MIC (S.aureus ATCC 29213; Staphylococcus aureus, ATCC29213, Mueller-Hinton Broth, 5 × 10^5 CFU/ml, 24 h, 37°C, visible growth, same result in three biological replicates (n = 3), read-out: Minimal Inhibitory Concentration (MIC) S.aureus ATCC 29213): 0.5 µg/mL (≈ 1.51 µM) | Minimal Inhibitory Concentration (MIC) S.aureus ATCC 29213 (S.aureus ATCC 29213; [10]): 1.5 µM | MIC (S.aureus FDA486; Staphylococcus aureus, FDA486, Mueller-Hinton Broth, 5 × 10^5 CFU/ml, 24 h, 37°C, visible growth, n = 3, read-out: Minimal Inhibitory Concentration (MIC) S.aureus FDA486): 0.25 µg/mL (≈ 0.754 µM) | Minimal Inhibitory Concentration (MIC) S.aureus FDA486 (S.aureus FDA486; [11]): 0.8 µM

Ac-EQVELEFD [Pol III peptide]
Kd (β-clamp [1]): ~2 µM

Ac-MDAWLVKW
Binding to β-clamp by 1D 1H NMR (line broadening, chemical shift or intensity change) (β-clamp [2]): could not detect any binding

Ac-MDRALVKWKKKRKIRRRRRRRRRRR-NH2 [RALVK]
Kd (E.coli β-clamp; cell penetrating peptides, MST buffer with 2% fetal bovine serum, initial in vitro binding experiments, bounds given, read-out: KD for the β-clamp (MST)): > 750 µM | Minimal Inhibitory Concentration (MIC) S.epidermidis (MRSE) (S.epidermidis (MRSE); [12]): 3 µM | Minimal Inhibitory Concentration (MIC) E. coli MG1655 (E. coli MG1655 [3]): 9 µM | Minimal Inhibitory Concentration (MIC) E. coli BL21 (E. coli BL21 [4]): 5 µM

Ac-MDRWLKWKKKRKIRRRRRRRRRRR-NH2 [RWLK]
Mutation frequency, added peptides (E. coli MG1655 [5]): 7.7 ± 3.3 Rif^R/10^8 CFU | KD for the β-clamp (MST) (E.coli β-clamp; cell penetrating peptides, MST buffer with 2% fetal bovine serum, initial in vitro binding experiments, bounds given): no binding was detected | Minimal Inhibitory Concentration (MIC) S.epidermidis (MRSE) (S.epidermidis (MRSE); [12]): 4 µM | Minimal Inhibitory Concentration (MIC) E. coli MG1655 (E. coli MG1655 [3]): 12 µM | Minimal Inhibitory Concentration (MIC) E. coli BL21 (E. coli BL21 [4]): 6 µM

Ac-MDRWLVKW [octamer peptide containing APIM, without the cell penetrating part]
Binding of octamer peptide to WT β-clamp (SPR) (WT β-clamp): bound stronger | Binding to β-clamp by 1D 1H NMR (line broadening, chemical shift or intensity change) (β-clamp [2]): visual line broadening | Binding of peptide to all β-clamp variants (SPR) ([6]; H148K, M362D, V151A, P363D, P242D, V247F versus WT): reduced ability to bind | Reduced binding of peptide to β-clamp V247F (SPR) ([6]; β-clampV247F versus WT): ~50%

Ac-MDRWLVKWKKKRKIRRRRRRRRRRR-NH2 [RWLVK]
Minimal Inhibitory Concentration (MIC) S.aureus FusA88799 (S.aureus FusA88799; Mueller-Hinton Broth, 5 × 10^5 CFU/ml, 24 h, 37°C, visible growth): 10 µg/mL | Minimal Inhibitory Concentration (MIC) S.aureus FusA88799 (S.aureus FusA88799; molar form of the μg/ml MIC): 3 µM | Minimal Inhibitory Concentration (MIC) S.aureus (MRSA) 43484 (S.aureus (MRSA) 43484; 43484, 24 h): 10 µg/mL | Minimal Inhibitory Concentration (MIC) S.aureus (MRSA) 43484 (S.aureus (MRSA) 43484; [11]): 3 µM | Effect on UV-induced mutation frequency (E. coli MG1655 [5]; E. coli MG1655, peptide 20 μM, 2 mJ UVC/cm^2, Figure 4A): reduced the mutation frequency | Mutation frequency, added peptides (E. coli MG1655 [5]): 5.9 ± 2.3 ** Rif^R/10^8 CFU | Effect on mutation frequency after UV-damage in all Pol V containing strains ([7]; UV 2 mJ/cm^2, Figure 4C): reduced the mutation frequency | Effect on mutation frequency after UV-irradiation in the ΔPol IV/V strain ([7]; UV 2 mJ/cm^2, Figure 4C): reduction in the mutation frequency | Effect on spontaneous mutation frequency in wild type (WT) ([7]; n = 8–10, Figure 4C): significantly reduced | Effect on mutation frequency in the TLS deficient ΔPol II/IV/V strain ([7]; under any conditions (spontaneous and UV)): No reduction of mutation frequency | Effect on spontaneous mutation frequency in the ΔPol II/V strain ([7]; Figure 4C): increased mutation frequency | Kd (E.coli β-clamp): < 50 µM | Minimal Inhibitory Concentration (MIC) S.aureus ATCC 29213 (S.aureus ATCC 29213; ATCC 29213, 24 h): 10 µg/mL | Minimal Inhibitory Concentration (MIC) S.aureus ATCC 29213 (S.aureus ATCC 29213; [10]): 3 µM | Minimal Inhibitory Concentration (MIC) S.aureus FDA486 (S.aureus FDA486; FDA486, 24 h): 10 µg/mL | Minimal Inhibitory Concentration (MIC) S.aureus FDA486 (S.aureus FDA486; [11]): 3 µM | Minimal Inhibitory Concentration (MIC) S.epidermidis (MRSE) (S.epidermidis (MRSE)): 3 µM | Minimal Inhibitory Concentration (MIC) E. coli MG1655 (E. coli MG1655 [3]): 11 µM | Minimal Inhibitory Concentration (MIC) E. coli BL21 (E. coli BL21 [4]): 5 µM

MD-RALVK- GILQSTLA [RALVK (overexpressed)]
Effect of peptide overexpression on bacterial growth (CFU/ml relative to uninduced culture; OD600) (E. coli BL21 [8]): did not inhibit bacterial growth

MD-RWLK- GILQSTLA [RWLK (overexpressed)]
Effect of overexpression on the mutation frequency (E. coli BL21 [9]; E. coli BL21, spontaneous): did not affect the mutation frequency | Mutation frequency, overexpressed peptides (E. coli BL21 [9]; spontaneous, E. coli BL21, IPTG 1 mM, 2 h, average ± SEM, RWLVK n = 5, RFSLK n = 5, RWLK n = 6, control 2.5 ± 0.4): 3.8 ± 1.2 Rif^R/10^8 CFU | Effect of peptide overexpression on bacterial growth (CFU/ml relative to uninduced culture; OD600) (E. coli BL21 [8]): did not inhibit bacterial growth
